ChEMBL document CHEMBL1145309, “Synthesis of biotinylated photoaffinity probes based on arylsulfonamide gamma-secretase inhibitors” (Bioorg Med Chem Lett, 2006)

Experiments:
Assay type in all cases: protein-complex assay
[1] = target: Gamma-secretase; assay: Inhibition of beta amyloid protein 40 production
[2] = target: T1, Gamma-secretase (Homo sapiens) (UniProt Q96BI3+Q9NZ42+Q8WW43+P49768+Q92542+P49810); assay: Inhibition of beta amyloid protein 40 production relative to 4-chloro-N-(2,5-difluorophenyl)-N-(1-(2-(3-(pyrrolidin-1-yl)propoxy)phenyl)ethyl)benzenesulfonamide
[3] = target: T1, Gamma-secretase (Homo sapiens); assay: Inhibition of beta amyloid protein 40 production relative to 4-chloro-N-phenyl-N-(1-(2-(3-(pyrrolidin-1-yl)propoxy)phenyl)ethyl)benzenesulfonamide

IC50 [1] [µM]	Ratio IC50 [2]	Ratio IC50 [3]	SMILES
3	0.7	–	CC(c1ccccc1OCCCN1CCCC1)N(c1cccc(C(=O)c2ccccc2)c1)S(=O)(=O)c1ccc(Cl)cc1 (centres undefined)
0.01	200	–	CC(c1ccc(C(=O)c2ccccc2)cc1OCCCN1CCCC1)N(c1cc(F)c(OCC(=O)NCCCCCNC(=O)CCCC[C@@H]2SC[C@@H]3NC(=O)N[C@@H]32)cc1F)S(=O)(=O)c1ccc(Cl)cc1 (some centres undefined)
0.69	–	0.01	CC(c1ccccc1OCCCN1CCCC1)N(c1ccccc1)S(=O)(=O)c1ccccc1 (centres undefined)
0.35	–	0.03	CC(c1ccccc1OCCCN1CCCC1)N(c1ccccc1)S(=O)(=O)c1ccc(F)cc1 (centres undefined)
1	–	–	CCN(CC)CCCOc1ccccc1C(C)N(c1cc(F)ccc1F)S(=O)(=O)c1ccc(Cl)cc1 (centres undefined)
17	0.1	–	CC(c1ccc(C(=O)c2ccccc2)cc1OCCCN1CCCC1)N(c1ccccc1)S(=O)(=O)c1ccc(Cl)cc1 (centres undefined)
0.13	15	–	CC(c1ccc(C(=O)c2ccccc2)cc1OCCCN1CCCC1)N(c1cc(F)ccc1F)S(=O)(=O)c1ccc(Cl)cc1 (centres undefined)
1.2	1.7	–	CC(c1ccccc1OCCCN1CCCC1)N(c1ccccc1C(=O)c1ccccc1)S(=O)(=O)c1ccc(Cl)cc1 (centres undefined)
0.49	4	–	CC(c1ccccc1OCCCN1CCCC1)N(c1ccccc1Cl)S(=O)(=O)c1ccc(Cl)cc1 (centres undefined)
0.53	3.8	–	CC(c1ccccc1OCCCN1CCCC1)N(c1cccc(Cl)c1)S(=O)(=O)c1ccc(Cl)cc1 (centres undefined)
4.4	–	–	CC(c1ccccc1OCCCN1CCOCC1)N(c1cc(F)ccc1F)S(=O)(=O)c1ccc(Cl)cc1 (centres undefined)
0.4	–	0.03	CC(c1ccccc1OCCCN1CCCC1)N(c1ccccc1)S(=O)(=O)c1ccc(C(F)(F)F)cc1 (centres undefined)
2.1	–	–	CC(c1ccccc1OCCCN1CCCCC1)N(c1cc(F)ccc1F)S(=O)(=O)c1ccc(Cl)cc1 (centres undefined)
1.3	1.5	–	CC(c1ccccc1OCCCN1CCCC1)N(c1ccc(Cl)cc1)S(=O)(=O)c1ccc(Cl)cc1 (centres undefined)
0.53	3.8	–	COc1cccc(N(C(C)c2ccccc2OCCCN2CCCC2)S(=O)(=O)c2ccc(Cl)cc2)c1 (centres undefined)
2	–	–	CC(c1ccccc1OCCCN1CCCC1)N(c1cc(F)ccc1F)S(=O)(=O)c1ccc(Cl)cc1 (centres undefined)
0.02	100	–	CC(c1ccc(C(=O)c2ccccc2)cc1OCCCN1CCCC1)N(c1cc(F)c(OCC(=O)NCCCCCCCCNC(=O)CCCC[C@@H]2SC[C@@H]3NC(=O)N[C@@H]32)cc1F)S(=O)(=O)c1ccc(Cl)cc1 (some centres undefined)
0.0061	328	–	CC(c1ccc(C(=O)c2ccc(COC(=O)NCCCCCCCCNC(=O)CCCC[C@@H]3SC[C@@H]4NC(=O)N[C@@H]43)cc2)cc1OCCCN1CCCC1)N(c1cc(F)ccc1F)S(=O)(=O)c1ccc(Cl)cc1 (some centres undefined)
0.01	200	–	CC(c1ccccc1OCCCN1CCCC1)N(c1ccccc1)S(=O)(=O)c1ccc(Cl)cc1 (centres undefined)
0.0029	690	–	CC(c1ccc(C(=O)c2ccc(COC(=O)NCCCCCNC(=O)CCCC[C@@H]3SC[C@@H]4NC(=O)N[C@@H]43)cc2)cc1OCCCN1CCCC1)N(c1cc(F)ccc1F)S(=O)(=O)c1ccc(Cl)cc1 (some centres undefined)
1.9	–	0.005	CC(c1ccccc1OCCCN1CCCC1)N(c1ccccc1)S(=O)(=O)c1ccc(Br)cc1 (centres undefined)
1.1	1.8	–	COc1ccc(N(C(C)c2ccccc2OCCCN2CCCC2)S(=O)(=O)c2ccc(Cl)cc2)cc1 (centres undefined)
3.2	0.6	–	CC(c1ccccc1OCCCN1CCCC1)N(c1ccc(C(=O)c2ccccc2)cc1)S(=O)(=O)c1ccc(Cl)cc1 (centres undefined)
0.47	4.3	–	COc1ccccc1N(C(C)c1ccccc1OCCCN1CCCC1)S(=O)(=O)c1ccc(Cl)cc1 (centres undefined)
